Source: US10800816B2 (Baxalta GmbH, priority 2012, dated 2020)
Where a SMILES comes first, the peptide text is derived from it. [ ]: non-standard residue; d: D form. The star is where a group is joined. Succinimide(1-Et,3-yl) = CCN1C(=O)CC(*)C1=O; Tle = CC(C)(C)[C@H](N)C(=O)O; Hexanoyl = CCCCCC(=O)*; Aib = CC(C)(N)C(=O)O; Acm = CC(=O)NC*

Assays:
[1] = tested on: FVIII-inhibited whole blood; assay: Rotation thromboelastography (ROTEM) in whole blood; design: species or system human; conditions: for EC50: FVIII-inhibited, read-out: EC50, global hemostatic parameters; for coagulation parameters: Hem A / FVIII-inhibited human whole blood
Procedure: Continuous visco-elastic assessment of human whole blood clot formation and firmness was performed by rotation thromboelastography with whole blood preparations in the presence or absence of peptides. […] Test samples were prepared by dissolving quantities of peptides in either DMSO or HEPES buffered saline (with or without 0.1% Tween 80).
Recordings were made using a ROTEM thromboelastography coagulation analyzer (Pentapharm, Munich, Germany) at 37° C. Briefly, blood is added into a disposable cuvette in a heated cuvette holder. A disposable pin (sensor) is fixed on the tip of a rotating axis. The axis is guided by a high precision ball bearing system and rotates back and forth. The axis is connected with a spring for the measurement of elasticity. The exact position of the axis is detected by the reflection of light on a small mirror on the axis. The loss of elasticity when the sample clots leads to a change in the rotation of the axis. The data obtained are computer analyzed and visualized in a thromboelastogram. […] An elasticity of approximately zero is observed before clot formation begins. Mirror image traces above and below the zero line indicate the effect of clot formation on the rotation of the axis.
The analytical set-up was as follows: to 20 μL of test sample or control, 300 μL of pre-warmed (37° C.) CTI treated citrated whole blood was added, followed by 20 μL of a 1:15 dilution of TF PRP reagent containing recombinant human tissue factor (rTF, 3 pM) (TS40, Thrombinoscope BV, Maastricht, The Netherlands). Coagulation was initiated by the addition of 20 μ200 mM CaCl2 (star-TEM®, Pentapharm, Munich, Germany) and recordings were allowed to proceed for at least 120 min. The final concentration of rTF in the assay was 11 or 44 fM.
The thromboelastographic parameters of clotting time (CT), clot formation time (CFT) and maximum clot firmness (MCF) were recorded in accordance with the manufacturer's instructions. CT is defined as the time from the start of measurement to the start of clot formation. CFT is defined as the time from the start of clot formation until an amplitude of 20 mm is reached. MCF is the maximum difference in amplitude between the two traces during the assay. The first derivative of the data of the thromboelastogram are plotted to obtain a graph of velocity (mm/s) against time (s). From this graph, the maximum velocity (maxV) is determined. The time at which the maximum velocity is obtained (maxV-t) is also determined.
This example describes a method for assessing clot formation in whole blood using rotation thromboelastography (ROTEM). The assay was performed as described in Example 8. The analytical set-up was as follows: 300 μL of pre-warmed (37° C.) CTI treated citrated whole blood was added to a peptide sample (10, 100, 1000 nM final assay concentration) or a control, followed by addition of a 1:15 dilution of TF PRP reagent containing recombinant human tissue factor (rTF, 3 pM) (TS40, Thrombinoscope BV, Maastricht, The Netherlands). In certain experiments, exogenous full length TFPI (flTFPI) at final concentrations of 2 or 10 nM was added to simulate flTFPI plasma levels of up to 50-fold over normal. Coagulation was initiated by the addition of 20 μL 200 mM CaCl2 (star-TEM®, Pentapharm, Munich, Germany) and recordings were allowed to proceed for at least 120 min. The final concentration of rTF in the assay was 44 fM. The thromboelastographic parameters of clotting time (CT), clot formation time (CFT) and maximum clot firmness (MCF) were recorded in accordance with the manufacturer's instructions. CT is defined as the time from the start of measurement to the start of clot formation. CFT is defined as the time from the start of clot formation until an amplitude of 20 mm is reached. MCF is the maximum difference in amplitude between the two traces during the assay.

FIGURE 78J = assay: FIGURE 78J
From the text: Table printed on a drawing sheet, FIGURE 78J
First reader's note: Part of a table series (FIGS. 78A-78AA); single-measurement columns hold several replicate values per cell, joined by blanks, next to the mean column (the first INHIBITION [%] column holds the mean).

FIGURE 78AA = assay: FIGURE 78AA
From the text: Table printed on a drawing sheet, FIGURE 78AA
First reader's note: Continued from the previous sheet: the first body row (73.35) belongs to a compound listed there; cells with several numbers hold the single replicate values behind the mean.

TFPI [2] = assay: FXa Inhibition assay | EC50 (µM)
TFPI [3] = assay: % Inhibition @ 2.5µM
TFPI [4] = assay: % Inhibition @ 0.63µM
TFPI [5] = assay: % Inhibition @ 2.5µM; remark: listed apart in the source
FIGURE 78K = assay: FIGURE 78K
From the text: Table printed on a drawing sheet, FIGURE 78K

TFPI [6] = assay: Progress Curves of Inhibition of FXa | % Inhibit (2.5μM)
Procedure: Head of the field: Progress Curves of Inhibition of FXa | % Inhibit (2.5μM)

CSCC[C@@H]1NC(=O)[C@H](C)NC(=O)[C@@H](NC(=O)[C@H](Cc2c[nH]cn2)NC(=O)[C@H](Cc2c[nH]c3ccccc23)NC(=O)[C@H](CCCCN)NC(=O)[C@H](Cc2ccc(O)cc2)NC(=O)[C@H](Cc2ccc(O)cc2)NC(=O)[C@H](CO)NC(C)=O)CSSC[C@@H](C(=O)N[C@H](C(=O)N[C@@H](Cc2c[nH]c3ccccc23)C(=O)N[C@H](C(=O)N[C@@H](CCCCN)C(=O)N[C@@H](Cc2ccccc2)C(N)=O)C(C)C)C(C)C)NC(=O)[C@H]([C@@H](C)O)NC(=O)[C@H](CCSC)NC(=O)[C@H]([C@@H](C)O)NC(=O)CNC(=O)[C@H](CCCCN)NC(=O)[C@H](CCSC)NC(=O)[C@H](CC(=O)O)NC(=O)[C@H](CCCNC(=N)N)NC1=O [JBT1837]
EC50 [1]: 4 nM
coagulation parameters [1]: corrected blood coagulation parameters in FVIII-inhibited blood

CCN1C(=O)CC(SC[C@H](NC(=O)[C@H](CC(C)C)NC(=O)[C@H](CCCCN)NC(=O)[C@H](C)NC(=O)C(C)(C)NC(=O)[C@H](CC(C)C)NC(=O)[C@H](CCCNC(=N)N)NC(=O)[C@H](CCC(=O)O)NC(=O)[C@H](Cc2ccccc2)NC(=O)[C@H](Cc2ccc(O)cc2)NC(=O)CNC(=O)[C@H](CC(=O)O)NC(=O)[C@@H](NC(=O)[C@H](Cc2c[nH]cn2)NC(=O)[C@@H](NC(=O)[C@H](CC(N)=O)NC(=O)[C@H]2CCCN2C(=O)[C@H](CCCCN)NC(=O)[C@H](CO)NC(=O)[C@H](CCC(N)=O)NC(=O)[C@H](Cc2ccccc2)NC(C)=O)C(C)C)C(C)C)C(N)=O)C1=O (some centres unmarked) [JBT2317]
coagulation parameters [1]: restored coagulation parameters in Hem A blood
24 h Human Plasma Stability | Mean Remaining [%] (FIGURE 78J): 23.77%
24 h Mouse Plasma Stability | Mean Remaining [%] (FIGURE 78J): 15.95%

CCCCCC(=O)N[C@@H](Cc1ccccc1)C(=O)N[C@@H](CCC(N)=O)C(=O)N[C@@H](CO)C(=O)N[C@@H](CCCCN)C(=O)N1CCC[C@@H]1C(=O)N[C@@H](CSCNC(C)=O)C(=O)N[C@H](C(=O)N[C@@H](Cc1c[nH]cn1)C(=O)N[C@H](C(=O)N[C@@H](CC(=O)O)C(=O)N[C@H](C)C(=O)N[C@@H](Cc1ccc(O)cc1)C(=O)N[C@@H](Cc1ccccc1)C(=O)N[C@@H](CCC(=O)O)C(=O)N[C@@H](CCCNC(=N)N)C(=O)N[C@@H](CC(C)C)C(=O)NC(C)(C)C(=O)N[C@@H](C)C(=O)N[C@@H](CCCCN)C(=O)N[C@@H](CC(C)C)C(N)=O)C(C)(C)C)C(C)C [JBT2528, Hex-FQSKp-C(Acm)-VH-Tle-DaYFERL-Aib-AKL-NH2] (Hexanoyl-FQSK[dP]C(Acm)VH[Tle]D[dA]YFERL[Aib]AKL-NH2)
EC50 [1]: 11 nM

CCCCCC(=O)N[C@@H](Cc1ccccc1)C(=O)N[C@@H](CCC(N)=O)C(=O)N[C@@H](CO)C(=O)N[C@@H](CCCCN)C(=O)N1CCC[C@@H]1C(=O)N[C@@H](CO)C(=O)N[C@H](C(=O)N[C@@H](Cc1c[nH]cn1)C(=O)N[C@H](C(=O)N[C@@H](CC(=O)O)C(=O)N[C@H](C)C(=O)N[C@@H](Cc1ccc(O)cc1)C(=O)N[C@@H](Cc1ccccc1)C(=O)N[C@@H](CCC(=O)O)C(=O)N[C@@H](CCCNC(=N)N)C(=O)N[C@@H](CC(C)C)C(=O)NC(C)(C)C(=O)N[C@@H](C)C(=O)N[C@@H](CCCCN)C(=O)N[C@@H](CC(C)C)C(=O)N[C@@H](CSC1CC(=O)N(CC)C1=O)C(N)=O)C(C)(C)C)C(C)C (some centres unmarked) [JBT00002546, Hex-FQSKpSVH-Tle-DaYFERL-Aib-AKLC(NEM)-NH2] (Hexanoyl-FQSK[dP]SVH[Tle]D[dA]YFERL[Aib]AKLC(Succinimide(1-Et,3-yl))-NH2)
24 h Human Plasma Stability | Mean Remaining [%] (FIGURE 78AA): 87.66%
24 h Mouse Plasma Stability | Mean Remaining [%] (FIGURE 78AA): 72.98%

CCCCCC(=O)N[C@@H](Cc1ccccc1)C(=O)N[C@@H](CCC(N)=O)C(=O)N[C@@H](CO)C(=O)N[C@@H](CCCCN)C(=O)N1CCC[C@@H]1C(=O)N[C@@H](CO)C(=O)N[C@H](C(=O)N[C@@H](Cc1c[nH]cn1)C(=O)N[C@H](C(=O)N[C@@H](CC(=O)O)C(=O)N[C@H](C)C(=O)N[C@@H](Cc1ccc(O)cc1)C(=O)N[C@@H](Cc1ccccc1)C(=O)N[C@@H](CCC(=O)O)C(=O)N[C@@H](CCCNC(=N)N)C(=O)N[C@@H](CC(C)C)C(=O)NC(C)(C)C(=O)N[C@@H](C)C(=O)N[C@@H](CCCCN)C(=O)N[C@@H](CC(C)C)C(N)=O)C(C)(C)C)C(C)C [JBT00002548, Hex-FQSKpSVH-Tle-DaYFERL-Aib-AKL-NH2]
24 h Human Plasma Stability | Mean Remaining [%] (FIGURE 78AA): 98.85%
24 h Mouse Plasma Stability | Mean Remaining [%] (FIGURE 78AA): 50.25%

(Hex-FQSKp-Cys(Acm)-VH-Tle-DaYFERL-Aib-AKLC-NH2)- Mal-mPEG23 [JBT00002544]
24 h Human Plasma Stability | Mean Remaining [%] (FIGURE 78AA): 54.00%
24 h Mouse Plasma Stability | Mean Remaining [%] (FIGURE 78AA): 46.20%

Ac-FQSKDNVFVTGYFERLRAKL-NH2 (SEQ ID NO: 33) [JBT0478]
EC50 (TFPI [2]): 760 nM
% Inhibition @ […] (TFPI [3]): 39%
% Inhibition @ […] (TFPI [4]): 21%

Ac-FQSKGNVFLFGYFERLRAKL-NH2 (SEQ ID NO: 694) [JBT0658]
% Inhibition @ […] (TFPI [5]): 6%

Ac-FQSKGNVFVDGYFDRLRAKL-NH2 (SEQ ID NO: 31) [JBT0476]
EC50 (TFPI [2]): 220 nM
% Inhibition @ […] (TFPI [3]): 49%
% Inhibition @ […] (TFPI [4]): 38%

Ac-FQSKGNVFVEGYFERLRAKL-NH2 (SEQ ID NO: 30) [JBT0475]
EC50 (TFPI [2]): 250 nM
% Inhibition @ […] (TFPI [3]): 50%
% Inhibition @ […] (TFPI [4]): 37%

Ac-FQSKGNVFVHGYFERLRAKL-NH2 (SEQ ID NO: 28) [JBT0473]
EC50 (TFPI [2]): 250 nM
% Inhibition @ […] (TFPI [3]): 45%
% Inhibition @ […] (TFPI [4]): 31%

Ac-FQSKGNVFVNGYFERLRAKL-NH2 (SEQ ID NO: 27) [JBT0472]
EC50 (TFPI [2]): 370 nM
% Inhibition @ […] (TFPI [3]): 49%
% Inhibition @ […] (TFPI [4]): 34%

Ac-FQSKpNVHVDGYFERL-Aib-AKLC(ME-50MA)-NH2 [JBT00002325]
24 h Human Plasma Stability | Mean Remaining [%] (FIGURE 78J): 67.60%
24 h Mouse Plasma Stability | Mean Remaining [%] (FIGURE 78J): 44.70%

Ac-FQSKpNVHVDGYFERL-Aib-AKLC(ME-120MA)-NH2 [JBT00002326]
24 h Human Plasma Stability | Mean Remaining [%] (FIGURE 78J): 58.70%
24 h Mouse Plasma Stability | Mean Remaining [%] (FIGURE 78J): 57.20%

Ac-FQSKpNVHVDGYFERL-Aib-AKLC(ME-200MA0B)-NH2 [JBT00002327]
24 h Human Plasma Stability | Mean Remaining [%] (FIGURE 78K): 76.50%
24 h Mouse Plasma Stability | Mean Remaining [%] (FIGURE 78K): 65.50%

Ac-FQSKpNVHVDGYFERL-Aib-AKLC(ME-300MA)-NH2 [JBT00002328]
24 h Human Plasma Stability | Mean Remaining [%] (FIGURE 78K): 68.40%
24 h Mouse Plasma Stability | Mean Remaining [%] (FIGURE 78K): 51.00%

Ac-KKHVSKRSKEMALARLYYKTSKK-NH2 (SEQ ID NO: 2302) [JBT0231]
Progress Curves of Inhibition of FXa | % Inhibit ([…]) (TFPI [6]): 0%

Ac-KKLHVSKRSKEMALARLYYKTSKK-NH2 (SEQ ID NO: 2307) [JBT0236]
Progress Curves of Inhibition of FXa | % Inhibit ([…]) (TFPI [6]): 0%

Ac-KKQLHVSKRSKEMALARLYYKTKK-NH2 (SEQ ID NO: 2306) [JBT0235]
Progress Curves of Inhibition of FXa | % Inhibit ([…]) (TFPI [6]): 0%

Ac-KKVQLHVSKRSKEMALARLYYKTSKK- NH2 (SEQ ID NO: 2301) (Ac-KKVQLHVSKRSKEMALARLYYKTSKK-NH2) [JBT0230]
Progress Curves of Inhibition of FXa | % Inhibit ([…]) (TFPI [6]): 0%

Ac-KKYASFPLAVQLHVSKRSKEMAKK-NH2 [JBT0233]
Progress Curves of Inhibition of FXa | % Inhibit ([…]) (TFPI [6]): 6%
